Assay results published in patent US6774131B1, “Remedies for endothelin-induced diseases” (Yamanouchi Pharmaceutical Co., Ltd., priority 2000, dated 2004).

Assay: Plasma concentration when orally administered to humans
Assay type: in vivo, human
Procedure: For the purpose of the assessment of the pharmacokinetics, tolerance and safety of Compound 1 when orally administered, the Compound 1 was administered at a single dose of 10 mg to 3 subjects of progressive prostate cancer patients after prostatectomy. So as to assay the plasma concentration of intact Compound 1, blood of 6 ml was collected in a lithium heparin-containing polyethylene tube, prior to administration and at individual times of 30 minutes, one hour, 1.5 hour, 2 hours, 3 hours, 4 hours, 6 hours, 8 hours, 12 hours, 24 hours, 36hours and 48hours after administration, followed by immediate centrifugation (4° C., 10 minutes, 3500 rpm), to recover the plasma. The plasma samples were stored under freezing at −70° C. until the concentration was assayed. The plasma concentration was assayed by the LC-MS/MS method.

[1] = single oral dose 10 mg, prostate cancer patients, plasma

Structure (SMILES): COc1ccccc1Oc1c(NS(=O)(=O)C=Cc2ccccc2)nc(-c2ncccn2)nc1OC.[K] [Compound 1, N-[6-methoxy-5-(2-methoxyphenoxy)-2-(2-pyrimidinyl)-4-pyrimidinyl]-2-phenylethenesulfoneamide•potassium salt]
- AUC ratio Compound 1 (10 mg)/ABT-627 (20 mg) (oral, humans, listed as The effective component of the invention): about 18 fold
- AUC [1]: 14700 ng·h/mL
- Cmax [1]: 1000 ng/mL
- T max [1]: 2 h
- T ½ [1]: 13 h
